Measured values from patent US10814010B2, “FOXC2 inhibitor and methods of use thereof” (The Board of Regents of The University of Texas System, priority 2018, dated 2020).

Legend:
[1] = test system: MDA-MB-231 cells; assay: Western blot of FOXC2 target/non-target genes, EMT, CSC and apoptosis markers in MDA-MB-231; assay type: cell-based; details: MDA-MB-231, 20 μM
Experimental: MC-1-F2's effect on FOXC2-mediated transcription was examined by measuring PDGFR-β expression levels, a downstream effector of FOXC2 (Hollier et al., 2013). […] (FIGS. 16A&B). To validate the specificity of the ligand to FOXC2, Western blot analysis was carried out on the non-target genes of FOXC2, p38 and GSK3P3.
Next, it was examined if FOXC2 inhibition by MC-1-F2 can affect EMT progression. […] It has been shown that inhibition of downstream or upstream targets of other EMT-associated transcription factors such as Snail, Slug and Twist leads to the decreased EMT progression, through the re-expression of E-cadherin (Bachelder et al., 2005; Ren et al., 2013). However, the impact of direct inhibition of EMT-associated transcription factors including FOXC2 on EMT progression has never been explored until now due to the lack of small molecule inhibitors directly targeting these transcription factors.
As EMT is known to bestow on cells CSC-like properties (Hollier et al., 2013), MC-1-F2 should be able to repress CSC characteristics in cells undergoing EMT. In order to examine the effects of MC-1-F2 on CSC properties, a Western blot analysis of MDA-MB-231 cell with and without treatment of MC-1-F2 was carried out, analyzing the CSC markers c-Myc, KLF4, and Nanog. […] In order to further evaluate the effect of MC-1-F2 on CSC properties and EMT progression, β-catenin nuclear localization was examined (FIG. 5D). β-catenin is involved in both EMT progression and acquisition of CSC properties (Kalluri & Weinberg, 2009, Schmalhofer et al., 2009). A repression of E-cadherin has shown to initiate a nuclear localization of β-catenin, leading to an initiation of several EMT signals (Schmalhofer et al., 2009). Moreover, nuclear localization β-catenin is the hallmark of an active Wnt pathway, a major pathway that contributes to CSC properties (Beck & Blanpain, 2013). […] Only nuclear fraction of β-catenin bestows CSC properties on cells.
50 μg of total protein per sample was incubated with 4× loading buffer at 100° C. for 5 min. Protein samples were then loaded into a polyacrylamide gel and subjected to SDS-PAGE. Resolved proteins were then transferred by a wet transfer method to a PVDF membrane at 100 V for 1 hour using a BioRad Mini Trans-Blot Electrophoresis Transfer Cell. Upon the completion of wet transfer, the membrane was then blocked with 5% (w/v) fat-free milk in 1× Tris-buffered saline/0.1% (v/v) Tween-20 (TBS-T) for at least 1 hour. Then incubated with the respective primary antibodies diluted in 5% BSA in 1×TBST at 4° C. overnight. The following day exposed to 1:1000 dilution of anti-mouse or anti-rabbit HRP-conjugated secondary antibodies in 5% (w/v) fat-free milk in 1×TBS-T for 1 hour at room temperature. The probed proteins were then detected for chemiluminescent signal using SuperSignal Chemiluminescent Substrate (PIERCE). Pierce antibodies: B-actin, and all other antibodies used are from cell signaling. MG132 treatment was added to cells (0.5 μM) for 1-hour incubation prior to compound treatment, no more than 24 hours total exceeded during MG132 incubation.

[2] = test system: MDA-MB-231 cells; assay: MTT cell viability assay, MDA-MB-231; assay type: cell-based; details: Homo sapiens; MDA-MB-231, MTT, high FOXC2 expression
Experimental: It was hypothesized that the specific binding of MC-1-F2 can lead to its specific cellular activity against cancer cells with high FOXC2 expression. This hypothesis was tested by evaluating MC-1-F2's cellular activity on cell lines with different FOXC2 expression levels: MCF-7, BT549, and MDA-MB-231. […] However, further studies are still underway. The specificity in cellular activity of MC-1-F2 was further evaluated in the form of a soft-agar colony forming assay to determine if MC-1-F2 was able to inhibit in vitro tumorigenicity of cancer cells in a FOXC2 expression-dependent manner. […] Further testing is underway in various breast cancer cell lines with different FOXC2 expression levels.
Cell viability was assessed by MTT (3-(4,5-Dimethylthiazol-2-yl)-2,5-Diphenyltetrazolium Bromide) assay. 1×10^4 cells were seeded on 48-well cell culture plate, and were incubated for at least 24 hours prior to drug treatment. The MTT reagent (Fisher Scientific) was added to the culture medium 3 hours prior to the end of compound incubation. The reaction took place in the 37° C. incubator with 5% CO2 for 3 hours. Cell culture medium was then removed from the wells. Cells with the insoluble purple formazan were lysed with DMSO for 10 mins at room temperature, 0.5 ml per well. The solution was aliquot to 96-well plate for absorbance reading at 570 nm using a plate reader.

[3] = 48 hours, non-target gene of FOXC2

N=C(N)NCCCCNc1nc(Nc2ccc(Oc3ccccc3)cc2)nc(N2CCN(c3nc(N)nc(Nc4ccc(N5CCOCC5)cc4)n3)CC2)n1 [MC-1-F2]
PDGFR-β expression levels ([1]; 24 or 48 hours): decrease in PDGFR-β expression levels | E-cadherin expression ([1]; 48 hours): increase E-cadherin expression | KLF4 expression (CSC marker) ([1]; 48 hours): decrease | MMP2 expression ([1]; 48 hours): downregulated the expression | N-cadherin expression ([1]; 48 hours): downregulation of N-cadherin | Nanog expression (CSC marker) ([1]; 48 hours): no statistical difference | Slug expression ([1]; 48 hours): decrease in other mesenchymal markers | Snail protein level ([1]; 48 hours): did not affect the protein level | Vimentin expression ([1]; 48 hours): decrease in other mesenchymal markers | ZEB1 expression ([1]; 48 hours): downregulate ZEB1 | c-Myc expression (CSC marker) ([1]; 48 hours): decrease | cytosolic fraction of β-catenin ([1]; 48 hours): increase in the cytosolic fractions | induction of apoptosis (Western blot of Bad, phospho-Bad, Bak, Bax) ([1]; 48 hours): induction of an apoptosis | nuclear fraction of β-catenin ([1]; 48 hours): decrease in the nuclear fraction | GSK3β expression levels [1, 3]: no effect on the expression levels | p38 expression levels [1, 3]: no effect on the expression levels | EC50 [2]: ~20 µM
